The values below come from publication PMC10143845, “Series of Organotin(IV) Compounds with Different Dithiocarbamate Ligands Induced Cytotoxicity, Apoptosis and Cell Cycle Arrest on Jurkat E6.1, T Acute Lymphoblastic Leukemia Cells” (Molecules, 2023).

Entries after “also recorded” stand apart in the source; their conditions may differ. Where two headings read alike, the source gives them in different places.

The test system of data set [1] is Jurkat E6.1 human T acute lymphoblastic leukemia cell line. Put plainly: WST-1 cytotoxicity assay on Jurkat E6.1 cells. Particulars: for Selectivity Index (SI): IC50 non-cancerous cell line (WIL2-NS) / IC50 leukemia cell line (Jurkat E6.1); for IC50: read-out: Value of IC50 Jurkat E6.1; for kind of effect on the cells (cytostatic or cytotoxic): Jurkat E6.1, WST-1, up to 5.0 μM, 24 h. The method, then:
(§1) The Jurkat E6.1 (TIB-152™) and WIL2-NS (CRL-8155™) cell lines were purchased from the American Type Culture Collection. These cells were cultured in Roswell Park Memorial Institute Medium 1640, RPMI-1640 supplemented with 10% Fetal Bovine Serum (FBS) and 1% penicillin-streptomycin to obtain the complete growth medium. The cells were incubated at 37 °C with 5% CO2 (New Brunswick Galaxy 170 S, Hamburg, Germany).
(§2) Jurkat E6.1 and WIL2-NS cell lines were cultured in 75 cm^2 flasks and seeded in 96-well culture plates with a final concentration of 1 × 10^6 cells/mL. The cells were exposed to organotin(IV) dithiocarbamate compounds with the highest concentration of 5.0 μM. Vincristine was used in this study as a positive control with its highest concentration, at 5.0 μM, while untreated cells (cells and complete medium only) were used as the negative control. Serial dilution methods are used to obtain the desired concentration gradient and the cells were then exposed to the compounds overnight (24 h). After the incubation period, the WST-1 solution (Roche, Basel, Switzerland) was added in a ratio of 1:10 to the suspension volume in the wells and incubated for another 4 h. Finally, the cells’ optical density (OD) was measured using an ELISA microplate reader (Multiskan FC, Thermo Scientific, Waltham, MA, USA) at 440 nm wavelength. The data obtained were analyzed using GraphPad Prism software (Dotmatics) to determine the IC50 values.
(§3) The selectivity index is determined by dividing the cytotoxic activity (IC50 value) of each compound on a non-cancerous cell line (WIL2-NS) to a leukemia cell line (Jurkat E6.1) using the following equation:SI = IC50 for non cancerous cell line IC50 for cancerous cell line

In data set [2] the test system is WIL2-NS non-cancerous cells. The data set can be described thus: WST-1 cytotoxicity assay on WIL2-NS cells. The data set is classed as cell-based. To be noted: read-out: Value of IC50 WIL2-NS. The method, then: as §1, §2
In data set [3] the test system is Jurkat E6.1 cells. The data set can be described thus: Annexin V-FITC/PI apoptosis assay (mode of cell death) by flow cytometry. The format is cell-based, human. To be noted: Jurkat E6.1, treated at IC50 concentration, 24 h; for cell population in early apoptotic phase / cell population in late apoptotic phase: mean ± SEM; for total apoptosis population: early + late apoptosis. The method, then:
Apoptosis assay was performed according to the manufacturer’s instructions using Annexin V-FITC/PI staining kit (BD Biosciences, East Rutherford, NJ, USA). The Jurkat E6.1 cells were seeded in a 6-well plate with a final concentration of 5.0 × 10^5 cell/mL. […] After the incubation period, 500 μL of cells were harvested and transferred into a microcentrifuge tube. The sample was centrifuged at 1500 rpm for 5 min at 4 °C (Mikro 200R, Hettich, Kirchlengern, Germany) and the supernatant was discarded, and 500 μL of cold PBS was added to the sample followed by another centrifugation for 5 min, then the supernatant was discarded. Next, 150 μL of Annexin V binding buffer and 5.0 μL of Annexin V-FITC were added to the sample in the dark and then incubated for 15 min at room temperature. After that, 3.0 μL of propidium iodide (PI) was added to the samples. The samples then incubated for another 2 min at room temperature. Finally, 350 μL of Annexin V binding buffer was added to the samples and transferred into Falcon tubes. The samples were then analyzed using a BD FACS Canto II flow cytometer (BD Bioscience, East Rutherford, NJ, USA).

In data set [4] the test system is Jurkat E6.1 cells. Put plainly: Cell cycle analysis with RNase/PI stain by flow cytometry. The format is cell-based, human. Particulars: Jurkat E6.1, treated at IC50 concentration, 24 h; for cells in G0/G1 phase / cells in G2/M phase / cells in S phase: mean ± SEM. The method, then: Cell cycle analysis was performed according to the manufacturer’s instructions using PI/RNase Staining Buffer (BD Bioscience, East Rutherford, NJ, USA). For this assay, the Jurkat E6.1 cell line was cultured in 6-well culture plates with a final concentration of 1.0 × 10^6 cells/mL and treated with organotin(IV) dithiocarbamate compounds for 24 h, with vincristine as the positive control. The concentration of each treatment used was based on the IC50 values obtained from the WST-1 assay. After the incubation period, 500 µL of cell suspension was washed twice with cold PBS and fixed overnight with 500 µL of 70% ethanol. The cells were then stained with 500 µL RNase/PI stain and measured using a BD FACS Canto II flow cytometer (BD Bioscience, East Rutherford, NJ, USA). The cell cycle phases were analyzed using the ModFit LT software (Verity Software House).

For data set [5], the system named is Jurkat E6.1 cells. On the set-up: method as in earlier work. Particulars: ref 31 (Kamaludin et al.); cited from earlier work.
A short description of the next data set: in vitro. Particulars: human. The method, then: as §1, §2, §3
[6] abbreviates: WST-1, 24 h exposure, highest concentration 5.0 μM, mean ± SEM, n = 3.

Regarding `CCN(CC)C(=S)[S][Sn]([c]1ccccc1)([c]1ccccc1)[c]1ccccc1` [ODTC 5, triphenyltin(IV) diethyl dithiocarbamate], the “Selectivity Index (SI)” value in data set [1] was 0.86. Besides, in data set [1] (setting [6]), the IC50 is 920 ± 50 nM. Further, the IC50 in data set [2] (setting [6]) stood at 790 ± 50 nM. In addition, in the data set with Jurkat E6.1 cells [3], the “cell population in early apoptotic phase” value is on record as 56.50 ± 1.64%, the “cell population in late apoptotic phase” value was determined as 26.47 ± 1.23% and the total apoptosis population came out at 82.97 ± 2.84%. For the same compound, in the data set on Jurkat E6.1 cells [4], the “cells in G0/G1 phase” value is listed as 9.84% ± 0.71, the “cells in G2/M phase” value is on record as 31.46% ± 2.86 and the “cells in S phase” value is on record as 58.70% ± 3.37.

As to `COc1cccc2c1C(=O)c1c(O)c3c(c(O)c1C2=O)C[C@@](O)(C(=O)CO)C[C@@H]3O[C@H]1C[C@H](N)[C@H](O)[C@H](C)O1` [doxorubicin], the IC50 with Jurkat E6.1 cells [5] is 100 nM.

Regarding `CC(C)N(C(=S)[S][Sn]([c]1ccccc1)([c]1ccccc1)[c]1ccccc1)C(C)C` [ODTC 3, triphenyltin(IV) diisopropyl dithiocarbamate], the “Selectivity Index (SI)” value in data set [1] was found to be 1.11. Moreover, the IC50 in data set [1] (setting [6]) was 670 ± 60 nM. For the same compound, the IC50 in data set [2] (setting [6]) turned out to be 750 ± 70 nM. Moreover, in the data set with Jurkat E6.1 cells [3], the “cell population in early apoptotic phase” value was 59.70 ± 1.96%, the “cell population in late apoptotic phase” value is recorded as 27.80 ± 2.17% and the total apoptosis population is listed as 87.5%. For the same compound, in the data set with Jurkat E6.1 cells [4], the “cells in G0/G1 phase” value is on record as 68.37% ± 4.78, the “cells in G2/M phase” value is given as 4.34% ± 0.99 and the “cells in S phase” value was 27.29% ± 5.12.

As for `C=CCN(CC=C)C(=S)[S][Sn]([S]C(=S)N(CC=C)CC=C)([c]1ccccc1)[c]1ccccc1` [ODTC 2, diphenyltin(IV) diallyl dithiocarbamate], the “Selectivity Index (SI)” value in data set [1] is reported as 0.50. Besides, in data set [1] (setting [6]), the IC50 amounted to 1050 ± 20 nM. In addition, the IC50 in data set [2] (setting [6]) stood at 520 ± 140 nM. In the data set with Jurkat E6.1 cells [3], the “cell population in early apoptotic phase” value was 17.20 ± 2.69%, the “cell population in late apoptotic phase” value is given as 30.07 ± 2.38% and the total apoptosis population was 47.27%. Moreover, in the data set on Jurkat E6.1 cells [4], the “cells in G0/G1 phase” value is reported as 21.63% ± 3.17, the “cells in G2/M phase” value is on record as 19.03% ± 0.20 and the “cells in S phase” value is recorded as 59.37% ± 3.07.

Consider `CCN(CC)C(=S)[S][Sn]([CH3])([CH3])[S]C(=S)N(CC)CC` [ODTC 7, dimethyltin(IV) diethyl dithiocarbamate], for which the “Selectivity Index (SI)” value in data set [1] is given as 0.15. In data set [1] (setting [6]), the IC50 turned out to be 3400 ± 250 nM. Besides, the IC50 in data set [2] (setting [6]) is 500 ± 20 nM. In addition, in the data set on Jurkat E6.1 cells [3], the “cell population in early apoptotic phase” value worked out at 13.13 ± 2.62%, the “cell population in late apoptotic phase” value was 14.93 ± 1.35% and the total apoptosis population came to 28.06%. In the data set with Jurkat E6.1 cells [4], the “cells in G0/G1 phase” value is listed as 23.41% ± 5.37, the “cells in G2/M phase” value is recorded as 17.39% ± 4.52 and the “cells in S phase” value is on record as 57.19% ± 2.89.

In the case of `CC(C)N(C(=S)[S][Sn]([S]C(=S)N(C(C)C)C(C)C)([c]1ccccc1)[c]1ccccc1)C(C)C` [ODTC 1, diphenyltin(IV) diisopropyl dithiocarbamate], the “Selectivity Index (SI)” value in data set [1] came to 0.96. Moreover, the IC50 in data set [1] (setting [6]) was 1450 ± 20 nM. The IC50 in data set [2] (setting [6]) amounted to 1390 ± 460 nM. Moreover, in the data set with Jurkat E6.1 cells [3], the “cell population in early apoptotic phase” value turned out to be 12.23 ± 1.93%, the “cell population in late apoptotic phase” value stood at 13.17 ± 1.13% and the total apoptosis population is 25.4%. The “Phases of Cell Cycle Arrest” value with Jurkat E6.1 cells [4] is on record as “does not cause cell cycle arrest at any phase; also recorded: Not cell cycle specific”.

Turning to `C=CCN(CC=C)C(=S)[S][Sn]([c]1ccccc1)([c]1ccccc1)[c]1ccccc1` [ODTC 4, triphenyltin(IV) diallyl dithiocarbamate], the “Selectivity Index (SI)” value in data set [1] amounted to 0.71. In addition, in data set [1] (setting [6]), the IC50 is 940 ± 80 nM. Besides, the IC50 in data set [2] (setting [6]) turned out to be 670 ± 140 nM. In the data set with Jurkat E6.1 cells [3], the “cell population in early apoptotic phase” value turned out to be 49.70 ± 2.84%, the “cell population in late apoptotic phase” value was 38.63 ± 2.73% and the total apoptosis population came out at 88.33%. In the data set on Jurkat E6.1 cells [4], the “cells in G0/G1 phase” value is reported as 13.22% ± 2.30, the “cells in G2/M phase” value is 22.67% ± 3.54 and the “cells in S phase” value was 64.10% ± 4.46.

Turning to `CC[C@]1(O)C[C@H]2CN(CCc3c([nH]c4ccccc34)[C@@](C(=O)OC)(c3cc4c(cc3OC)N(C=O)[C@H]3[C@@](O)(C(=O)OC)[C@H](OC(C)=O)[C@]5(CC)C=CCN6CC[C@]43[C@@H]65)C2)C1` [Vincristine (positive control), Vincristine, reference compound], the viability at 24 h, 0.3 µM in the data set “in vitro” came to 40%. Also, the IC50 in data set [1] (Homo sapiens, Jurkat E6.1, 24 h) amounted to 240 ± 20 nM. In data set [1], the “Selectivity Index (SI)” value is 0.96 and the “kind of effect on the cells (cytostatic or cytotoxic)” value was “cytostatic effects”. Also, the IC50 in data set [2] (Homo sapiens, WIL2-NS, 24 h) came to 230 ± 30 nM. Also, in the data set with Jurkat E6.1 cells [3], the “cell population in early apoptotic phase” value amounted to 36.07 ± 2.85%, the “cell population in late apoptotic phase” value stood at 18.57 ± 1.31% and the total apoptosis population was found to be 54.64%. Further, in the data set on Jurkat E6.1 cells [4], the “cells in G0/G1 phase” value is recorded as 66.76% ± 1.39, the “cells in G2/M phase” value was 8.00% ± 0.00 and the “cells in S phase” value is 25.24% ± 1.39.

Turning to `CC(C)N(C(=S)[S][Sn]([CH3])([CH3])[S]C(=S)N(C(C)C)C(C)C)C(C)C` [ODTC 6, dimethyltin(IV) diisopropyl dithiocarbamate], the “kind of effect on the cells (cytostatic or cytotoxic)” value in data set [1] was “cytostatic effect”. Also, in data set [1] (setting [6]), the “Value of IC50 Jurkat E6.1” value is on record as “does not produce IC50 value at the tested range of concentration”. The IC50 in data set [2] (setting [6]) was determined as 5000 ± 20 nM.
